For assay [1], the target named is NTS1 (HT-29 cells) (Homo sapiens, UniProt P30989). In words: cell-based.
In assay [2] the target is neurotensin receptors (HT-29 cells) (Homo sapiens, UniProt P30989). In kind it is cell-based.

For orientation: EC50 means the concentration giving half of the maximal effect. A low value points to an effect from little substance.

Where a SMILES comes first, the peptide text is derived from it. [ ]: non-standard residue; d: D form. pGlu = O=C1CC[C@@H](C(=O)O)N1

neurotensin receptors (HT-29 cells), sequence (P30989 whole entry, looked up): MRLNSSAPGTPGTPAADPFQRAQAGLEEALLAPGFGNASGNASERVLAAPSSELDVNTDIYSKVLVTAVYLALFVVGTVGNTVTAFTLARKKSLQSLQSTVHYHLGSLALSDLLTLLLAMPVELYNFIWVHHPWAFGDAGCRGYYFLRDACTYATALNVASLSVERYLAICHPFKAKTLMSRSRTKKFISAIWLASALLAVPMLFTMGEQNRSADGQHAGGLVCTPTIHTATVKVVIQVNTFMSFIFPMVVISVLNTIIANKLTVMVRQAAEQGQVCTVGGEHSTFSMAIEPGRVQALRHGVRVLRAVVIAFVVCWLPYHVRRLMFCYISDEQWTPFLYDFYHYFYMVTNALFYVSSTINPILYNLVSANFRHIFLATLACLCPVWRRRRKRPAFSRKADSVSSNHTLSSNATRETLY
NTS1 (HT-29 cells), sequence (P30989 whole entry, looked up): as above

On to `CC[C@H](C)[C@H](NC(=O)[C@H](Cc1ccc(O)cc1)NC(=O)[C@@H]1CCCN1C(=O)[C@H](CCCCN)NC(=O)[C@H](CCCCN)NC(=O)[C@@H]1CCCN1C(=O)[C@H](CCCCN)NC(=O)[C@H](CC(N)=O)NC(=O)[C@H](CCC(=O)O)NC(=O)[C@H](Cc1ccc(O)cc1)NC(=O)[C@H](CC(C)C)NC(=O)[C@@H]1CCC(=O)N1)C(=O)N[C@@H](CC(C)C)C(=O)O` [[K8, K9] NT] ([pGlu]LYENKPKKPYIL-OH), for which the response in assay [1] was half-maximal at 20.2 ± 5.2 nM (EC50). In addition, in assay [2], the DC50 came out at 67 ± 18.1 nM and the DC50/EC50 amounted to 3.3.

Turning to `CC[C@H](C)[C@H](NC(=O)[C@H](Cc1ccc(O)cc1)NC(=O)[C@@H]1CCCN1C(=O)[C@H](CCCNC(=N)N)NC(=O)[C@H](CCCNC(=N)N)NC(=O)[C@@H]1CCCN1C(=O)[C@H](CCC(=O)O)NC(=O)[C@H](CC(N)=O)NC(=O)[C@H](CCC(=O)O)NC(=O)[C@H](Cc1ccc(O)cc1)NC(=O)[C@H](CC(C)C)NC(=O)[C@@H]1CCC(=O)N1)C(=O)N[C@@H](CC(C)C)C(=O)O` [[E6] NT], in assay [1], the midpoint of the response, the EC50, lay at 4.7 ± 1.4 nM. In assay [2], this molecule showed a DC50 of 57.5 ± 5.9 nM and a DC50/EC50 of 12.

As to `CC[C@H](C)[C@H](NC(=O)[C@H](Cc1ccc(O)cc1)NC(=O)[C@@H]1CCCN1C(=O)[C@H](CCCNC(=N)N)NC(=O)[C@H](CCCNC(=N)N)NC(=O)[C@@H]1CCCN1C(=O)[C@H](CCCCN)NC(=O)[C@H](CC(N)=O)NC(=O)[C@H](CCCCN)NC(=O)[C@H](Cc1ccc(O)cc1)NC(=O)[C@H](CC(C)C)NC(=O)[C@@H]1CCC(=O)N1)C(=O)N[C@@H](CC(C)C)C(=O)O` [[K4] NT], the EC50 in assay [1] worked out at 1.4 ± 0.1 nM. Besides, in assay [2], the DC50 is 30.5 ± 6.2 nM and the DC50/EC50 turned out to be 22.

Molecule `CC[C@H](C)[C@H](NC(=O)[C@H](Cc1ccc(O)cc1)NC(=O)[C@@H]1CCCN1C(=O)[C@H](CCCNC(=N)N)NC(=O)[C@H](CCCNC(=N)N)NC(=O)[C@@H]1CCCN1C(=O)[C@H](CCCCN)NC(=O)[C@H](CC(N)=O)NC(=O)[C@H](C)NC(=O)[C@H](Cc1ccc(O)cc1)NC(=O)[C@H](CC(C)C)NC(=O)[C@@H]1CCC(=O)N1)C(=O)N[C@@H](CC(C)C)C(=O)O` [[A4] NT] gave an EC50 in assay [1] of 0.6 ± 0.1 nM. Also, in assay [2], the DC50 stood at 11.7 ± 1.4 nM and the DC50/EC50 was 20.

The values above are taken from article PMC4322620 (Frontiers in Pharmacology, 2015).
